Experimental data from article PMC7863721, “Plasticity of Carbohydrate Transport at the Blood-Brain Barrier” (Frontiers in Behavioral Neuroscience, 2021).

What was measured:
[1] = target: T1, MFS3 (Major Facilitator Superfamily Transporter 3); MFS3-3xHA (Drosophila melanogaster, UniProt Q9VPX2); test: […]-sugar uptake into cRNA-injected Xenopus oocytes, net flux over native oocytes; format: cell-based; conditions: labelled compound; pH 7.2, 60 min; concentration series; no reliable Km or Vmax obtained
T1 construct: b38 prints CG4762, apparently a misprint of CG4726
T1 sequence (Q9VPX2 1-512): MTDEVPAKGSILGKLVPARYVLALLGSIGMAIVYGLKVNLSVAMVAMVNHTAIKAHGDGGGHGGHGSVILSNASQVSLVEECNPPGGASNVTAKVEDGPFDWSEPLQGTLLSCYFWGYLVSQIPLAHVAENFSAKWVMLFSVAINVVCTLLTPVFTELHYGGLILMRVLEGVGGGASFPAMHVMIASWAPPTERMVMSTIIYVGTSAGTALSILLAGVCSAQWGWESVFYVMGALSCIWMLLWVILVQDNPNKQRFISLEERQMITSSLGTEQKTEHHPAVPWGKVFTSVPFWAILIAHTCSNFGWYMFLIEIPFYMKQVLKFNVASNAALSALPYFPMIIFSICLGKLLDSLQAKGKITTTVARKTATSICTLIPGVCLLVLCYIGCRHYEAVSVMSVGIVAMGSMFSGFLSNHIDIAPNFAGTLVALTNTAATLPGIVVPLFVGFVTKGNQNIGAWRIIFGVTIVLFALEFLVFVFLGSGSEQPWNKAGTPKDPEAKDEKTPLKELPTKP

[2] = target: T2, Pippin (CG4797); Pippin-3xHA (Drosophila melanogaster, UniProt Q8MLQ7); test: as above; format: cell-based; conditions: labelled compound; pH 7.2, 60 min; concentration series; no reliable Km or Vmax obtained
T2 sequence (Q8MLQ7 1-533): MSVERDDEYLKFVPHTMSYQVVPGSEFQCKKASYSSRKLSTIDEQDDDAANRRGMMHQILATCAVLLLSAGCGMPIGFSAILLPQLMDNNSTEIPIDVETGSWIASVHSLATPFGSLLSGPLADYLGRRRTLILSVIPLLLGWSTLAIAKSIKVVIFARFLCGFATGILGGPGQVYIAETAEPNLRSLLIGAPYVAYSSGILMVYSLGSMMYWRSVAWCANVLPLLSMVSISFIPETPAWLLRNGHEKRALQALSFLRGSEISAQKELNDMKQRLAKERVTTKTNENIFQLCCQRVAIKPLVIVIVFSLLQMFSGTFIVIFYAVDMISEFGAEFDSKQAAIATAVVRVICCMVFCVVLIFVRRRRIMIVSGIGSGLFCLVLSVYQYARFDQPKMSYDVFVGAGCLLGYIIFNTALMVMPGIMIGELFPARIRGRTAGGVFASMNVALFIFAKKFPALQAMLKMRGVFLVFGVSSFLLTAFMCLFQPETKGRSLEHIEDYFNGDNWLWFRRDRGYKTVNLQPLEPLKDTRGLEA

Structure (SMILES)	14C-sugar uptake into cRNA-injected Xenopus oocytes, net flux over native oocyte [1]	14C-sugar uptake into cRNA-injected Xenopus oocytes, net flux over native oocyte [2]
OC[C@H]1OC(O)[C@H](O)[C@@H](O)[C@@H]1O (stereo partly shown) [glucose]	both Pippin and MFS3 facilitate uptake of glucose and trehalose efficiently	both Pippin and MFS3 facilitate uptake of glucose and trehalose efficiently
OC[C@H]1O[C@H](O[C@H]2O[C@H](CO)[C@@H](O)[C@H](O)[C@H]2O)[C@H](O)[C@@H](O)[C@@H]1O [trehalose]	both Pippin and MFS3 facilitate uptake of glucose and trehalose efficiently	both Pippin and MFS3 facilitate uptake of glucose and trehalose efficiently
